Assay results reported in ChEMBL document CHEMBL3880393, “2-(Pyridin-2-ylamino)-pyrido[2,3-d]pyrimidin-7-ones” (2003).

Target: Fibroblast growth factor receptor (Homo sapiens, UniProt P22607+P11362+P22455+P21802)
Experiment: Inhibition of FGFR (unknown origin) using poly (4:1) glutamate-tyrosine substrate and [gamma32P]ATP incubated for 10 mins by beta plate counter based assay
Format: protein assay

For `O=c1ccc2cnc(Nc3ccccc3)nc2n1C1CCCC1`, the IC50 was 2.98 µM.
